For data set [1], the target named is T1, AMP-activated protein kinase (AMPK) alpha-1/beta-1/gamma-1 (Homo sapiens) (UniProt P54619+Q9Y478+Q13131). Briefly: Activation of recombinant AMPK alpha1/beta1/gamma1 (unknown origin) at 10 uM relative to control. The conditions noted are these: filed as activator. Format: protein-complex assay.
Data set [2] has as its target T2, Cannabinoid receptor 1 (Mus musculus, UniProt P47746). Briefly: Antagonist activity at CB1 receptor in mouse brain membrane assessed as inhibition of […]-induced GTPgammaS binding by [35S]GTPgammaS binding analysis. It counts as functional, cell membranes. For orientation: GTPγS is a poorly hydrolysed GTP analogue; its binding reports G protein activation.
Data set [3] has as its target T1, AMP-activated protein kinase (AMPK) alpha-1/beta-1/gamma-1 (Homo sapiens). Briefly: Activation of recombinant AMPK alpha1/beta1/gamma1 (unknown origin) at 1 uM relative to control. It counts as protein-complex assay. As to conditions: filed as activator.
The target in data set [4] is T2, Cannabinoid receptor 1. Nature of the data set: Displacement of [3H][…] from CB1 receptor in mouse brain plasma membrane by radioligand displacement analysis. It counts as cell membranes. Background: In a radioligand displacement assay an active substance lowers the binding of a labelled ligand.
The nature of data set [5]: Drug uptake in C57BL/6J mouse plasma at 10 mg/kg, po measured after 1 hr by LC-MS/MS analysis. Format: ADME, organism-based.
The nature of data set [6]: Drug uptake in C57BL/6J mouse brain at 10 mg/kg, po measured after 1 hr by LC-MS/MS analysis. Format: ADME, organism-based. As to conditions: read-out: Drug uptake.

The term IC50 denotes the midpoint of a concentration-inhibition curve. As a reminder, the Ki is a measure of affinity in units of concentration, obtained from inhibition or displacement. The low end stands for a stronger hold on the target, the high end for a looser hold on the target.

T2 sequence (P47746 whole entry): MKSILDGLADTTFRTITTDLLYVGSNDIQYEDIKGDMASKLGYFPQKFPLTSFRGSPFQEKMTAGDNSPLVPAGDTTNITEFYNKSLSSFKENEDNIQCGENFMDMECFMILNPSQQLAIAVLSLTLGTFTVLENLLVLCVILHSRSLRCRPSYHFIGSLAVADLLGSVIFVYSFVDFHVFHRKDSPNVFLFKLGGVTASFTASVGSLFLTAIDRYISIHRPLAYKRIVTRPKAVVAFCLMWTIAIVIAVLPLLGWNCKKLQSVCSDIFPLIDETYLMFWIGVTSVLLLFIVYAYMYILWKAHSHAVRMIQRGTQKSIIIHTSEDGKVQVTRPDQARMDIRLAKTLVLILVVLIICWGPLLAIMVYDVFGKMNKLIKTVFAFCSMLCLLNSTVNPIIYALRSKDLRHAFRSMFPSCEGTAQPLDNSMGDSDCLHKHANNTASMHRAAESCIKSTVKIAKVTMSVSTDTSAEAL
T1 sequence (P54619 whole entry): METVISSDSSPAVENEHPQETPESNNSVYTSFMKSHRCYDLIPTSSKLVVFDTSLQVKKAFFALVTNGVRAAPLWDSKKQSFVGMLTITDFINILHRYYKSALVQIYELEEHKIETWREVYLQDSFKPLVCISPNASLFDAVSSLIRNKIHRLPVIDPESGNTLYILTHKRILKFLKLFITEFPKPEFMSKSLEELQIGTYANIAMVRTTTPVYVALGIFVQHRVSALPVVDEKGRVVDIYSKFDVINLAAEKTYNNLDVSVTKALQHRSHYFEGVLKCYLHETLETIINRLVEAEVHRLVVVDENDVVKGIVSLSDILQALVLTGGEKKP
T1 sequence (Q13131 whole entry partner): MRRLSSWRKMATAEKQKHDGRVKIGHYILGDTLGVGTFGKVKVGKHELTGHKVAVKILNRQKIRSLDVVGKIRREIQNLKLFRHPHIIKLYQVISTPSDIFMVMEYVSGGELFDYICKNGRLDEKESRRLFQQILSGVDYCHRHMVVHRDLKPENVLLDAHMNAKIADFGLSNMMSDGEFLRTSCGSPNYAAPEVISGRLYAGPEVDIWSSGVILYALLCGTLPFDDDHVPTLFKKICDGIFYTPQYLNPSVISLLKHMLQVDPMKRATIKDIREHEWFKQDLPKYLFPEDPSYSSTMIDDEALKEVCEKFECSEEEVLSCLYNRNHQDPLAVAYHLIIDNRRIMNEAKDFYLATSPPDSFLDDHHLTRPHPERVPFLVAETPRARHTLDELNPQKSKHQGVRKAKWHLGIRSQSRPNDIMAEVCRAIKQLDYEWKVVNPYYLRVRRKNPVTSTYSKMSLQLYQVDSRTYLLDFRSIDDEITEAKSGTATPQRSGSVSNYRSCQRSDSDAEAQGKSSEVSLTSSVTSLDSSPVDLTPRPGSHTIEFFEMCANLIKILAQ
T1 sequence (Q9Y478 2-270 partner limits assumed): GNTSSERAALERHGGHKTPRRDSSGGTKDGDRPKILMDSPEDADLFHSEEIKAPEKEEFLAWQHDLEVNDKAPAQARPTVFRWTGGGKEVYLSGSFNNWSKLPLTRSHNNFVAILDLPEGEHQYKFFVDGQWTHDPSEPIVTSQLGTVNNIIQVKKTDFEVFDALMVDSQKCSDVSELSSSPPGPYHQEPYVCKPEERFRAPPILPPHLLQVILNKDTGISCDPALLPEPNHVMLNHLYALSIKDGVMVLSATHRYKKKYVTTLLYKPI

As for `CCN(CC)/C(N)=N/C(=N/S(=O)(=O)c1ccc(Cl)cc1)N1CC(c2ccccc2)C(c2ccc(Cl)cc2)=N1` (centres undefined), the Activity in data set [1] and in data set [3] was 113% in each case. For the same compound, the half-maximal inhibitory concentration (IC50) at Cannabinoid receptor 1 [2] came out at 53 nM.

With `CC(=O)N/C(N)=N/C(=N/S(=O)(=O)c1ccc(I)cc1)N1C[C@@H](c2ccccc2)C(c2ccc(Cl)cc2)=N1`, on Cannabinoid receptor 1 [4], affinity was put at a Ki of 55 nM. Besides, the Activity in data set [1] was 122%.

Turning to `CC(=O)N/C(N)=N/C(=N/S(=O)(=O)N1CCC(C(F)(F)F)CC1)N1CC(c2ccccc2)C(c2ccc(Cl)cc2)=N1` (centres undefined), at Cannabinoid receptor 1 [4], the Ki was found to be 0.8 nM. For the same compound, the IC50 on Cannabinoid receptor 1 [2] came to 2.5 nM. In addition, in data set [3], the Activity stood at 116%. Besides, the values for the concentration at 1 h in data set [5] and in data set [6] were 28 ng/mL and 0.21 ng/g, respectively.

On to `CCCN(CCC)/C(N)=N/C(=N/S(=O)(=O)c1ccc(Cl)cc1)N1CC(c2ccccc2)C(c2ccc(Cl)cc2)=N1` (centres undefined), for which the Activity in data set [1] and in data set [3] was 175% in each case. In addition, at Cannabinoid receptor 1 [2], the IC50 is 396 nM.

With `CC(=O)N/C(N)=N/C(=N/S(=O)(=O)N1CCCCC1)N1CC(c2ccccc2)C(c2ccc(Cl)cc2)=N1` (centres undefined), the Ki at Cannabinoid receptor 1 [4] came out at 1.6 nM. The IC50 on Cannabinoid receptor 1 [2] came out at 7 nM. In addition, the Activity in data set [3] came to 152%. Further, the values for the concentration at 1 h in data set [5] and in data set [6] were 44 ng/mL and 1.9 ng/g, respectively.

Consider `CC(=O)N/C(N)=N/C(=N/S(=O)(=O)N1CCC(C(F)(F)F)CC1)N1C[C@@H](c2ccccc2)C(c2ccc(Cl)cc2)=N1`, for which affinity on Cannabinoid receptor 1 [4] was put at a Ki of 37 nM. Further, the Activity in data set [1] turned out to be 114%.

Consider `CN(C)/C(N)=N/C(=N/S(=O)(=O)c1ccc(Cl)cc1)N1CC(c2ccccc2)C(c2ccc(Cl)cc2)=N1` (centres undefined), for which the Activity in data set [1] and in data set [3] was 124% in each case. In addition, at Cannabinoid receptor 1 [2], the IC50 stood at 47 nM.

Regarding `N/C(=N\C(=N\S(=O)(=O)c1ccc(Cl)cc1)N1CC(c2ccccc2)C(c2ccc(Cl)cc2)=N1)NCc1ccccc1` (centres undefined), the Activity in data set [1] came out at 149%.

For `CN1CCN(/C(N)=N/C(=N/S(=O)(=O)c2ccc(Cl)cc2)N2CC(c3ccccc3)C(c3ccc(Cl)cc3)=N2)CC1` (centres undefined), the Activity in data set [1] is 182%.

`CC(=O)N/C(N)=N/C(=N/S(=O)(=O)c1ccc(Cl)cc1)N1C[C@@H](c2ccccc2)C(c2ccc(Cl)cc2)=N1`: the Ki at Cannabinoid receptor 1 [4] is 103 nM. Moreover, the Activity in data set [1] came to 130%.

Turning to `CC(C)N/C(N)=N/C(=N/S(=O)(=O)c1ccc(Cl)cc1)N1CC(c2ccccc2)C(c2ccc(Cl)cc2)=N1` (centres undefined), the Activity in data set [1] was 145%.

In turn, `CC(=O)N/C(N)=N/C(=N/S(=O)(=O)N1CCC(F)(F)CC1)N1CC(c2ccccc2)C(c2ccc(Cl)cc2)=N1` (centres undefined) returned a Ki on Cannabinoid receptor 1 [4] of 0.7 nM. For the same compound, the IC50 on Cannabinoid receptor 1 [2] turned out to be 2 nM. The Activity in data set [3] turned out to be 142%. In addition, the concentration at 1 h in data set [5] worked out at 26 ng/mL; in data set [6] it was 4 ng/g.

Regarding `CC(C)(C)N/C(N)=N/C(=N/S(=O)(=O)c1ccc(Cl)cc1)N1CC(c2ccccc2)C(c2ccc(Cl)cc2)=N1` (centres undefined), the Activity in data set [1] and in data set [3] was 126% each time. The IC50 at Cannabinoid receptor 1 [2] was 230 nM.

Take `N/C(=N\C(=N\S(=O)(=O)c1ccc(Cl)cc1)N1CC(c2ccccc2)C(c2ccc(Cl)cc2)=N1)N1CCCC1` (centres undefined): the Activity in data set [1] is 135%.

At Cannabinoid receptor 1 [4], `CC(=O)N/C(N)=N/C(=N/S(=O)(=O)c1ccc(OC(F)(F)F)cc1)N1C[C@@H](c2ccccc2)C(c2ccc(Cl)cc2)=N1` came in with a Ki of 5.3 nM. In data set [1], the Activity came to 114%.

Take `CC(C)(N/C(N)=N/C(=N/S(=O)(=O)c1ccc(Cl)cc1)N1CC(c2ccccc2)C(c2ccc(Cl)cc2)=N1)c1ccccc1` (centres undefined): the Activity in data set [1] and in data set [3] was 100% in each case. In addition, at Cannabinoid receptor 1 [2], the half-maximal inhibitory concentration (IC50) was 84 nM.

On to `COCCN(CCOC)/C(N)=N/C(=N/S(=O)(=O)c1ccc(Cl)cc1)N1CC(c2ccccc2)C(c2ccc(Cl)cc2)=N1` (centres undefined), for which, in data set [1], the Activity is 155%.

Turning to `CN(Cc1ccccc1)/C(N)=N/C(=N/S(=O)(=O)c1ccc(Cl)cc1)N1CC(c2ccccc2)C(c2ccc(Cl)cc2)=N1` (centres undefined), the Activity in data set [1] came out at 153%.

The values are drawn from ChEMBL document CHEMBL5365437, “Cannabinoformins: Designing Biguanide-Embedded, Orally Available, Peripherally Selective Cannabinoid-1 Receptor Antagonists for Metabolic Syndrome Disorders” (J Med Chem, 2023).
